Results on one substance are retold here after paper PMC4096217 (Journal of Medicinal Chemistry, 2014).

The data set deals with BR+ cancer cell lines (MX-1, MCF-7, ID8, L1210FR). As to the kind of experiment: MTT cytotoxicity, 72 h, summarised over the four BR+ cancer cell lines. The class given is cell-based. To be noted: Table 1 entries 1 and 2.

SB-T-1214 [taxoid 1]: the “Cytotoxicity relative to camptothecin (times stronger)” value is recorded as 148–846 times.
